These results are taken from patent publication US8017629B2, “Compounds and uses thereof in modulating amyloid β” (Neurogenetic Pharmaceuticals, Inc., priority 2003, dated 2011).

For one experiment, the system named is Aβ42 levels in the extracellular medium. Description: FRET (HTRF) assay, Aβ42 level of the extracellular medium of SH-SY5Y-APP cells. The class given is cell-based. The following applies: Homo sapiens, concentration at which reduction of Aβ42 level was half of the maximum reduction, read-out: Ab42 Potency. In general terms: In TR-FRET formats the signal depends on donor and acceptor labels being close together.
Regarding `CCN(CCOC)c1ccc(Nc2nc(-c3ccc(-n4cnc(C)c4)cc3)cs2)c(C)c1` [Compound 231], the EC50 lay in the range of 200 to 1000 nM.
For the compound `CCN(CC)c1ccc(C)c(Nc2nc(-c3ccc(-n4ccnc4)cc3)cs2)c1` [Compound 265], the EC50 is below 200 nM.
On the same count and under the same terms, then `CCN(C)c1cc(Nc2nc(-c3ccc(-n4ccnc4)cc3)cs2)c(C)cc1C` [Compound 334], with below 200 nM; and `CCN(CC)c1ccc(Nc2nc(-c3ccc(-c4ncc(Br)s4)cc3)cs2)c(C)c1` [Compound 312], with 200 to 1000 nM.
Still for that read-out and setting: then `COc1ccc(C)c(Nc2nc(-c3ccc(-n4cnc(C)c4)nc3)cs2)c1` [Compound 197], with below 200 nM; and `CCOc1cc(C)c(Nc2nc(-c3ccc(-n4ccnc4)cc3)cs2)cc1C` [Compound 290], with below 200 nM; and `Clc1cccc(Nc2nc(-c3ccc4c(c3)OCO4)cs2)c1` [Compound 154], with 10100 to 30000 nM.
The same measure, in the same setting: next, `COc1ccc(-c2csc(Nc3ccc(N(C)C)cc3)n2)c(OC)c1` [Compound 114]: 200 to 1000 nM.
`COc1cc(Nc2nc(-c3ccc(F)cc3)cs2)cc(OC)c1OC` [Compound 108]: the EC50 lay in the range of 5100 to 10000 nM.
Still for that read-out and setting: next, `Cc1ccc(CO)cc1Nc1nc(-c2ccc(-n3cnc(Br)c3)cc2)cs1` [Compound 301]: 200 to 1000 nM.
Turning to `CCN(CC)c1ccc(C)c(Nc2nc(-c3ccc(-n4cnc(C)c4)nc3)cs2)c1` [Compound 270], the EC50 is below 200 nM.
Consider `Cc1cn(-c2ccc(-c3csc(Nc4cc(-n5cccc5)ccc4C)n3)cn2)cn1` [Compound 277], for which the EC50 was below 200 nM.
On to `CSc1cccc(Nc2nc(-c3ccc(-n4cnc(Br)c4)cc3)cs2)c1` [Compound 266], for which the EC50 lay within 5100 to 10000 nM.
The same measure, in the same setting: then `CCN(C)c1cc(Nc2nc(-c3ccc(-n4cnc(C)c4)nc3)cs2)c(C)cc1C` [Compound 336], with below 200 nM; and `CN1CCN(c2ccc(-c3csc(Nc4ccc5[nH]cnc5c4)n3)cc2)CC1` [Compound 155], with 1100 to 5000 nM; and `Cc1cn(-c2ccc(-c3csc(Nc4cc(C)c(C)cc4C)n3)cn2)cn1` [Compound 262], with 200 to 1000 nM.
Consider `COc1cc(C)c(Nc2nc(-c3ccc(-n4cnc(C)c4)cc3)c(C)s2)cc1C(C)C` [Compound 297], for which the EC50 is below 200 nM.
The same measure, in the same setting: next, `CCOc1cc(C)c(Nc2nc(-c3ccc(-n4cnc(C)c4)cc3)cs2)cc1C` [Compound 271]: below 200 nM; `COc1cc(-n2cnc(C)c2)ccc1-c1csc(Nc2cc(C)c(C)cc2C)n1` [Compound 263]: 200 to 1000 nM.
Take `CCN(c1ccc(N2CCCCC2)cc1)c1nc(-c2ccc(-n3ccnc3)cc2)cs1` [Compound 184]: the EC50 was in the range of 1100 to 5000 nM.
As for `CN1CCN(c2ccc(-c3csc(Nc4ccc(Br)cc4)n3)cc2)CC1` [Compound 138], the EC50 lay in the range of 10100 to 30000 nM.
Same read-out and setting: next, `CCN(CC)c1ccc(-c2csc(Nc3ccc(OC)cc3OC)n2)cc1` [Compound 122]: 1100 to 5000 nM; `Cc1ccc(Nc2nc(-c3ccc(N4CCN(C)CC4)cc3)cs2)cc1C` [Compound 195]: 10100 to 30000 nM; `CCc1ccc(C)nc1Nc1ccc(Nc2nc(-c3ccc(-n4ccnc4)cc3)cs2)c(C)c1` [Compound 209]: 5100 to 10000 nM.
Still for that read-out and setting: then `Cc1cn(-c2ccc(-c3csc(Nc4cc(-n5cccc5)ccc4C)n3)cc2)cn1` [Compound 293], with 200 to 1000 nM; and `Cc1cc(N2CCN(Cc3ccccc3)CC2)ccc1Nc1nc(-c2ccc(-n3ccnc3)cc2)cs1` [Compound 201], with 1100 to 5000 nM; and `CCOc1cc(C)c(Nc2nc(-c3ccc(N4CCN(C)CC4)cc3)cs2)cc1C` [Compound 322], with 1100 to 5000 nM.
On the same count and under the same terms, then `CCN(CC)c1cc(Nc2nc(-c3cnc(-n4cnc(C)c4)nc3)cs2)c(C)cc1C` [Compound 343], with below 200 nM; and `CCN(C)c1cc(Nc2nc(-c3ccc(-n4cnc(C)c4)cc3)cs2)c(C)cc1C` [Compound 335], with below 200 nM; and `CCN(CCOC)c1ccc(Nc2nc(-c3ccc(-n4cnc(C)c4)cc3C(F)(F)F)cs2)c(C)c1` [Compound 232], with 5100 to 10000 nM.
Consider `CCN(CC)c1cc(Nc2nc(-c3ccc(-n4cnc(C)c4)nc3)cs2)c(C)cc1C` [Compound 289], for which the EC50 was below 200 nM.
Take `CN(C)S(=O)(=O)c1ccc(-c2csc(Nc3ccc4[nH]cnc4c3)n2)cc1` [Compound 157]: the EC50 is 10100 to 30000 nM.
For the compound `CCN(CC)c1ccc(Nc2nc(-c3ccc(-n4cnc(C)c4)cc3)cs2)c(C)c1` [Compound 179], the EC50 was 200 to 1000 nM.
As to `CN1CCC(CNc2ccc(Nc3nc(-c4ccc(-n5ccnc5)cc4)cs3)cc2)CC1` [Compound 188], the EC50 was in the range of 1100 to 5000 nM.

Another experiment deals with BACE Enzyme (Homo sapiens, UniProt P56817). In words: BACE Enzyme Potency (Table 12). The class given is biochemical.
BACE Enzyme, sequence (P56817 46-501, species assumed): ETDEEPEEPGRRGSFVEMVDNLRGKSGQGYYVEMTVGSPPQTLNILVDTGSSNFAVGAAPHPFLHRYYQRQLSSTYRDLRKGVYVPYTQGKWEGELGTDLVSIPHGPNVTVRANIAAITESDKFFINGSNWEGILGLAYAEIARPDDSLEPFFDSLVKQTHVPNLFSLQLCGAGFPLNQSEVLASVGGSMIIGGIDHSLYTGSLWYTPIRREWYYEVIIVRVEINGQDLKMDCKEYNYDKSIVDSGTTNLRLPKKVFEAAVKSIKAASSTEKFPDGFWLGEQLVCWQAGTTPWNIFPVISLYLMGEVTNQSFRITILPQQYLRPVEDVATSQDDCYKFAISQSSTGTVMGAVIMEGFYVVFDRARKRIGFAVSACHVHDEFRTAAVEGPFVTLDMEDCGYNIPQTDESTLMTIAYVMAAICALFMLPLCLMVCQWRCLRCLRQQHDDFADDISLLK
Conditions: not given
`COc1ccc(-c2csc(Nc3ccc(N(C)C)cc3)n2)c(OC)c1` [Compound 355] displayed an IC50 of 1100 to 5000 nM.

Still in this experiment, the particulars now being: Table 12; class symbols; read-out: BACE Enzyme Potency.
Turning to `CN1CCN(c2ccc(-c3csc(Nc4ccc5[nH]ncc5c4)n3)cc2)CC1` [Compound 368], the IC50 was 1100 to 5000 nM.
Consider `CN1CCN(c2ccc(-c3csc(Nc4ccc5c(cnn5C)c4)n3)cc2)CC1` [Compound 367], for which the IC50 was in the range of 1100 to 5000 nM.
As to `COc1ccc(-c2csc(Nc3ccc(Br)cc3)n2)c(OC)c1` [Compound 362], the IC50 fell in the range of 200 to 1000 nM.
Take `CN1CCN(c2ccc(-c3csc(Nc4ccc(Cl)c(Cl)c4)n3)cc2)CC1` [Compound 366]: the IC50 is below 200 nM.
On the same count and under the same terms, then `CCN(CC)c1ccc(Nc2nc(-c3ccc(-n4cnc(C)c4)cc3)cs2)c(C)c1` [Compound 380], with 1100 to 5000 nM.
Regarding `CCOC(=O)c1ccc(Nc2nc(-c3ccc(N4CCN(C)CC4)cc3)cs2)cc1` [Compound 382], the IC50 fell in the range of 200 to 1000 nM.
The same measure, in the same setting: then `CN1CCN(c2ccc(-c3csc(Nc4ccc(Cl)cc4)n3)cc2)CC1` [Compound 378], with 200 to 1000 nM; and `CN1CCN(c2ccc(-c3csc(Nc4ccc5c(c4)OCO5)n3)cc2)CC1` [Compound 357], with 200 to 1000 nM; and `CN1CCN(c2ccc(-c3csc(Nc4cccc5cccnc45)n3)cc2)CC1` [Compound 360], with below 200 nM.
On the same count and under the same terms, then `CN1CCN(c2ccc(-c3csc(Nc4ccc(N(C)C)cc4)n3)cc2)CC1` [Compound 358], with 200 to 1000 nM; and `COc1cccc(CNc2nc(-c3ccc(N4CCN(C)CC4)cc3)cs2)c1` [Compound 365], with 5100 to 10000 nM; and `CCN(c1ccc(N2CCOCC2)cc1)c1nc(-c2ccc(-n3ccnc3)cc2)cs1` [Compound 381], with 5100 to 10000 nM.
As for `CSc1cccc(Nc2nc(-c3ccc(N4CCCC4)cc3)cs2)c1` [Compound 379], the IC50 was 200 to 1000 nM.
Same read-out and setting: then `CSc1cccc(Nc2nc(-c3ccc(-n4ccnc4)cc3)cs2)c1` [Compound 371], with 200 to 1000 nM.
The same measure, in the same setting: next, `CN1CCN(c2ccc(-c3csc(Nc4ccc5ccccc5c4)n3)cc2)CC1` [Compound 359]: 200 to 1000 nM; `CN1CCN(c2ccc(-c3csc(Nc4ccc5c(c4)OCCO5)n3)cc2)CC1` [Compound 364]: below 200 nM.
On the same count and under the same terms, next, `CCN1CCN(c2ccc(-c3csc(Nc4ccc5c(c4)OCO5)n3)cc2)CC1` [Compound 375]: 1100 to 5000 nM; `CN1CCN(c2ccc(-c3csc(Nc4ccc(Oc5ccccc5)cc4)n3)cc2)CC1` [Compound 369]: below 200 nM.
`COc1cc(Nc2nc(-c3ccc(F)cc3)cs2)cc(OC)c1OC` [Compound 354]: the IC50 lay within 200 to 1000 nM.
Turning to `CC(C)N(c1ccccc1)c1ccc(Nc2nc(-c3ccc(-n4ccnc4)cc3)cs2)cc1` [Compound 373], the IC50 lay within 200 to 1000 nM.
For `COc1ccc(-c2csc(Nc3ccc4[nH]cnc4c3)n2)c(OC)c1` [Compound 374], the IC50 lay in the range of 200 to 1000 nM.
Turning to `CN1CCN(c2ccc(-c3csc(Nc4cccc(Cl)c4)n3)cc2)CC1` [Compound 376], the IC50 lay in the range of 200 to 1000 nM.
Still for that read-out and setting: next, `c1cc(Nc2nc(-c3ccc4c(c3)OCO4)cs2)c2cn[nH]c2c1` [Compound 377]: 200 to 1000 nM; `COc1cc(Nc2nc(-c3ccc(N4CCN(C)CC4)cc3)cs2)cc(OC)c1OC` [Compound 356]: 200 to 1000 nM.
Same read-out and setting: next, `c1cn(-c2ccc(-c3csc(Nc4ccc5[nH]ccc5c4)n3)cc2)cn1` [Compound 370]: 200 to 1000 nM.
Still for that read-out and setting: next, `COc1ccc(-c2csc(Nc3ccc(OC)c(OC)c3)n2)c(OC)c1` [Compound 353]: 200 to 1000 nM.
On to `CSc1cccc(Nc2nc(-c3ccc(N4CCN(C)CC4)cc3)cs2)c1` [Compound 372], for which the IC50 was in the range of 200 to 1000 nM.
Turning to `CCc1ccc(Nc2nc(-c3ccc(N4CCCC4)cc3)cs2)cc1` [Compound 363], the IC50 is 200 to 1000 nM.
Still for that read-out and setting: then `Brc1ccc(Nc2nc(-c3ccc(N4CCCC4)cc3)cs2)cc1` [Compound 361], with 200 to 1000 nM.
